Reference: patent publication US9751919B2, “Antimicrobial compositions comprising a hyaluronic acid binding peptide and a β-lactam antibiotic” (priority 2012, dated 2017)
Where “and” joins values, the source holds several entries; their conditions need not be identical. Equal values may be shown once. Marks after values point to notes of the source that are not given here.

Experiments:
Assay in all cases: Checkerboard assay (FIC index)
CA-MRSA = format: cell-based, Staphylococcus aureus
Procedure: (§1) Checkerboard assays were carried out as described by Bonapace et al.
(§2) Diagnostic Microbiology and Infectious Diseases 2002; 44:363-366. In brief, checkerboard assays were performed in 96 well microtitre trays using an 8-by-8 well configuration. […] 96-well custom designed microtitre plates contained 100 ul/well of cation adjusted Mueller-Hinton broth (eg. for Enterobacteriaceae) with or without lysed horse blood (2-5% V/V) [eg. for S. pneumoniae] and were inoculated to achieve a final concentration of approximately 5×10^5 CFU/ml and incubated in ambient air for 24 hours prior to reading. Colony counts were performed periodically to confirm inocula. Quality control was performed every two weeks using a variety of ATCC QC organisms including; S. pneumoniae 49619, S. aureus 29213, E. faecalis 29212, E. coli 25922 and P. aeruginosa 27853. […] All peptides were assessed for synergy with β-lactams and vancomycin. For all antimicrobials as well as the peptides, CLSI criteria were used.
(§3) The fractional inhibitory concentration index (FIC index) was used to interpret synergy, antagonism or additivity/indifference. FIC index=FIC of drug A+FIC of drug B where:
(§4) The FIC of drug A and drug B was calculated as follows, FIC drug A=MIC of drug A in combination/MIC of drug A alone and FIC of drug B=MIC of drug B in combination/MIC of drug B alone. Synergy was defined as FIC index ≦0.5, additivity/indifference defined as a FIC between 0.5 and 4 and antagonism defined as an FIC index >4.
(§5) The fractional inhibitory concentration index (FIC index) was used to interpret synergy, antagonism or additivity/indifference. FIC index=FIC of drug A+FIC of drug B where the FIC of drug A and drug B was calculated as follows, FIC drug A=MIC of drug A in combination/MIC of drug A alone and FIC of drug B=MIC of drug B in combination/MIC of drug B alone. Synergy was defined as FIC index ≦0.5, additivity/indifference defined as an FIC of between 0.5 and 4 and antagonism defined as an FIC index >4.
(§6) The checkerboard assays were carried out as described by Eliopoulos and Moellering (Chapter 9) in Antibiotic in Laboratory Medicine, Lorian Ed. 1996 as well as Bonapace et al. Diagnostic Microbiology and Infectious Diseases 2002; 44:363-366 and Bonapace et al. Diagnostic Microbiology and Infectious Diseases 2000; 38:43-50. In brief, checkerboard assays were performed in 96 well microtitre trays using an 8-by-8 well configuration. […] 96-well custom designed microtitre plates contained 100 ul/well of cation adjusted Mueller-Hinton broth (eg. for Enterobacteriaceae) with or without lysed horse blood (2-5% V/V) [eg. for S. pneumoniae] and were inoculated to achieve a final concentration of approximately 5×10^5 CFU/ml and incubated in ambient air for 24 hours prior to reading. Colony counts were performed periodically to confirm inocula. Quality control was performed every two weeks using a variety of ATCC QC organisms including; S. pneumoniae 49619, S. aureus 29213, E. faecalis 29212, E. coli 25922 and P. aeruginosa 27853.
(§7) The FIC of drug A and drug B is calculated as follows, FIC drug A=MIC of drug A in combination/MIC of drug A alone and FIC of drug B=MIC of drug B in combination/MIC of drug B alone. Synergy is defined as FIC index ≦0.5, additivity/indifference FIC >0.5-4 and antagonism FIC index >4.
(§8) These agents were obtained as laboratory grade powders from their respective manufacturers. Stock solutions were prepared and dilutions made as described by the Clinical Laboratory Standards Institute (2005 CLSI).

VRSA = format: cell-based, Staphylococcus aureus
Procedure: as §1, §2, §3, §4, §5, §6, §7, §8

S. agalactiae = format: cell-based, Streptococcus agalactiae; details: antibiotic combined with PEP35
Procedure: as §6, with “27853. For all antimicrobials as well as PEP35, CLSI criteria was used.” for “27853.”
as §3, §7
(§9) Antimicrobials used included PEP35, cefazolin, ceftriaxone, vancomycin, linezolid, tigecycline and daptomycin versus Gram-positive cocci and PEP35, gentamicin, levofloxacin, piperacillin/tazobactam, meropenem and colistin (Polymyxin E) versus Gram-negative bacilli. These agents were obtained as laboratory grade powders from their respective manufacturers. Stock solutions were prepared and dilutions made as described by the Clinical Laboratory Standards Institute (2005 CLSI).
(§10) Organisms included Gram-positive cocci (2 strains of each): Methicillin-susceptible Staphylococcus aureus (MSSA), community-associated (CA) and healthcare-associated (HA) methicillin-resistant Staphylococcus aureus (MRSA), vancomycin-intermediate Staphylococcus aureus (VISA), vancomycin-resistant Staphylococcus aureus (VRSA), methicillin-resistant Staphylococcus epidermidis (MRSE), Streptococcus pyogenes, Streptococcus agalactiae, Streptococcus pneumoniae, Enterococcus faecalis, Enterococcus faecium and vancomycin-resistant enterococcus (VRE). Gram-negative bacilli tested (2 strains of each) included: E. coli, Pseudomonas aeruginosa, Klebsiella pneumoniae, K. oxytoca, Enterobacter cloacae, P. mirabilis and Stenotrophomonas maltophilia. MIC testing, following two subcultures from frozen stock were determined by the CLSI 2005 approved broth microdilution method.

S. pyogenes = format: cell-based, Streptococcus pyogenes; details: antibiotic combined with PEP35
Procedure: as §6, with “27853. For all antimicrobials as well as PEP35, CLSI criteria was used.” for “27853.”
as §3, §7, §9, §10

E. Faecium = format: cell-based, Enterococcus faecium; details: antibiotic combined with PEP35
Procedure: as §6, with “27853. For all antimicrobials as well as PEP35, CLSI criteria was used.” for “27853.”
as §3, §7, §9, §10

VRE = format: cell-based, Enterococcus faecium; details: antibiotic combined with PEP35
Procedure: as §6, with “27853. For all antimicrobials as well as PEP35, CLSI criteria was used.” for “27853.”
as §3, §7, §9, §10

[1] = antibiotic combined with PEP35 (added together), CA-MRSA 69615 (USA400)
[2] = β-lactam combined with HybPEP35-1, CA-MRSA 69615 (USA400)
[3] = β-lactam combined with PEP-52, CA-MRSA 69615 (USA400)
[4] = β-lactam combined with Scrambled PEP35, CA-MRSA 69615 (USA400)
[5] = antibiotic combined with PEP35 (added together), VRSA 106
[6] = β-lactam combined with HybPEP35-1, VRSA 106
[7] = β-lactam combined with PEP-52, VRSA 106
[8] = β-lactam combined with Scrambled PEP35, VRSA 106
[9] = antibiotic combined with PEP35 (added together), CA-MRSA 70857 (USA400)
[10] = antibiotic combined with PEP35 (added together), VRSA 105

Row | Compound | Avg ΣFIC (range) (CA-MRSA; [1]) | Avg ΣFIC (range) (CA-MRSA; [2]) | Avg ΣFIC (range) (CA-MRSA; [3]) | Avg ΣFIC (range) (CA-MRSA; [4]) | Avg ΣFIC (range) (VRSA; [5]) | Avg ΣFIC (range) (VRSA; [6]) | Avg ΣFIC (range) (VRSA; [7]) | Avg ΣFIC (range) (VRSA; [8]) | Avg ΣFIC (range) (CA-MRSA; [9]) | Avg ΣFIC (range) (VRSA; [10]) | Avg ΣFIC (range) (S. agalactiae; S. agalactiae 80870 (MHB)) | Avg ΣFIC (range) (S. agalactiae; S. agalactiae 81262 (MHB)) | Avg ΣFIC (range) (S. pyogenes; S. pyogenes 77765 (MHB)) | Avg ΣFIC (range) (S. pyogenes; S. pyogenes 79531 (MHB)) | Avg ΣFIC (range) (E. Faecium; E. Faecium 78024) | Avg ΣFIC (range) (E. Faecium; E. Faecium 78352) | Avg ΣFIC (range) (VRE; VRE 70769) | Avg ΣFIC (range) (VRE; VRE 77872)
1 | C[C@@H](O)[C@H]1C(=O)N2C(C(=O)O)=C(S[C@@H]3CN[C@H](C(=O)N(C)C)C3)[C@H](C)[C@H]12 [Meropenem] | 0.49 | 0.70 | >1* | 0.70 | 0.91 | 0.91 | >1* | 0.91 |  |  |  |  |  |  |  |  |  | 
2 | CN[C@H](CC(C)C)C(=O)N[C@H]1C(=O)N[C@@H](CC(N)=O)C(=O)N[C@H]2C(=O)N[C@H]3C(=O)N[C@H](C(=O)N[C@H](C(=O)O)c4cc(O)cc(O)c4-c4cc3ccc4O)[C@H](O)c3ccc(c(Cl)c3)Oc3cc2cc(c3O[C@@H]2O[C@H](CO)[C@@H](O)[C@H](O)[C@H]2O[C@H]2C[C@](C)(N)[C@H](O)[C@H](C)O2)Oc2ccc(cc2Cl)[C@H]1O [Vancomycin] | 1.19 (1.03-1.5) |  |  |  | 0.27 (0.09-0.53) and 0.40 (0.15-1.06) |  |  |  | 1.05 (0.75-1.25) | 0.3 (0.15-0.53) and 0.49 (0.24-1.06) | 1.05 (0.75-1.25) | 1.1 (1.0-1.25) | 1.09 (1.0-1.25) | 1.27 (1.015-2.5) | 1.19 (1.03-1.5) | 1.59 (1.06-2.5) | 0.92 (0.506-1.25) | 1.19 (1.03-1.5)
3 | Cc1nnc(SCC2=C(C(=O)O)N3C(=O)[C@@H](NC(=O)Cn4cnnn4)[C@H]3SC2)s1 [Cefazolin] |  | 0.24 | >0.5* | 0.24 |  | 0.52 | >1* | 0.52 | 0.3 (0.12-0.56) and 0.26 (0.09-0.53) | 0.63 (0.5-1.015) | 0.92 (0.56-1.25) | 1.10 (1-1.25) | 1.04 (0.75-1.25) | 1.19 (1.03-1.5) | 1.16 (1.015-1.5) | 1.10 (1-1.25) | >1* | >1*
4 | CC(=O)NC[C@H]1CN(c2ccc(N3CCOCC3)c(F)c2)C(=O)O1 [Linezolid, linezolid] | 0.80 (0.515-1.12) |  |  |  | 0.83 (0.5-1.12) |  |  |  | 0.89 (0.5-1.12) | 0.80 (0.5-1.06) | 1.1 (1.0-1.25) | 0.91 (0.53-1.25) | 1.05 (0.75-1.25) | 1.19 (1.03-1.5) | 1.1 (1-1.25) | 0.80 (0.5-1.06) | 1.09 (1-1.25) | 1.19 (1.03-1.5)
5 | CN(C)c1cc(NC(=O)CNC(C)(C)C)c(O)c2c1C[C@H]1C[C@H]3[C@H](N(C)C)C(O)=C(C(N)=O)C(=O)[C@@]3(O)C(O)=C1C2=O [Tigecycline, tigecycline] | 0.93 (0.62-1.12) |  |  |  | 1.2 (0.56-2.12) |  |  |  | 0.74 (0.5-1.06) | 0.93 (0.62-1.12) | 1.10 (1.0-1.25) | 1.05 (0.75-1.25) | 1.1 (1.0-1.25) | 1.1 (1.0-1.25) | 1.19 (1.03-1.5) | 0.99 (0.75-1.12) | 1.2 (1.03-1.05) | 1.39 (1.03-2.06)
6 | CCCCCCCCCC(=O)N[C@@H](Cc1c[nH]c2ccccc12)C(=O)N[C@H](CC(N)=O)C(=O)N[C@@H](CC(=O)O)C(=O)N[C@@H]1C(=O)NCC(=O)N[C@@H](CCCN)C(=O)N[C@@H](CC(=O)O)C(=O)N[C@H](C)C(=O)N[C@@H](CC(=O)O)C(=O)NCC(=O)N[C@H](CO)C(=O)N[C@@H]([C@H](C)CC(=O)O)C(=O)N[C@@H](CC(=O)c2ccccc2N)C(=O)O[C@@H]1C [Daptomycin, daptomycin] | 1.18 (1.015-1.5) |  |  |  | 0.91 (0.56-1.25) |  |  |  | 1.18 (1.015-1.5) | 0.52 (0.37-0.62) | 0.83 (0.53-1.12) | 1.69 (1.06-2.5) | 1.19 (1.03-1.5) | 1.19 (1.03-1.5) | 1.19 (1.03-1.5) | 1.10 (0.75-1.5) | 0.82 (0.28-1.25) | 1.34 (1.03-1.5)
7 | CO/N=C(\C(=O)N[C@@H]1C(=O)N2C(C(=O)O)=C(CSc3nc(=O)c(=O)[nH]n3C)CS[C@H]12)c1csc(N)n1 [Ceftriaxone] |  | 0.31 | >0.5* | 0.31 |  | 0.39 | >1* | 0.39 | 0.51 (0.18-1.015) | 0.45 (0.24-0.56) and 0.54 (0.18-1.06) | 0.99 (0.53-1.25) | 1.05 (0.75-1.25) | 1.19 (0.03-1.5) | 1.19 (1.03-1.5) | >1* | 0.99 (0.62-1.25) | >1* | >1*
